Measured values as given in publication PMC10223356, “Tetrasubstituted Pyrrole Derivative Mimetics of Protein–Protein Interaction Hot-Spot Residues: A Promising Class of Anticancer Agents Targeting Melanoma Cells” (Molecules, 2023).
≈ marks a conversion by molar mass, not a printed value.

What was measured:
normal rat L6 myoblast = experiment: Cell survival index (MTT + cell count) bioscreen, L6; type: cell-based; details: healthy rat myoblast cell line, 48 h of incubation, mean ± SEM (n = 30), read-out: L6 IC50
Protocol: (§1) Cell growth inhibition activity of compounds 1, 9a–i, 10a,b, and the positive control nutlin-3a was evaluated following 48 h of incubation with increasing concentrations of the compounds (from 1.5 to 25 µM) in human cancer (A375 and HCT-116) and healthy (L6) cell lines. […] The evaluation of the “cell survival index” show a typical concentration-dependent sigmoid trend, achieving IC50 values in the low micromolar range (Figure S2).
(§2) Human epithelial melanoma A375 cells, human colorectal carcinoma HCT-116 cells, and normal rat L6 myoblast were grown in DMEM (Invitrogen, Paisley, UK) supplemented with 10% fetal bovine serum (FBS, Cambrex, Verviers, Belgium), L-glutamine (2 mM, Sigma, Milan, Italy), penicillin (100 units/mL, Sigma), and streptomycin (100 μg/mL, Sigma) and cultured in a humidified 5% carbon dioxide atmosphere at 37 °C, according to ATCC recommendations. A375 and HCT-116 were used as preclinical human cancer models in vitro, while rat L6 were used as control healthy cells.
(§3) The antiproliferative activity of 1, 9a–i, and 10a,b was investigated through the estimation of a “cell survival index”, arising from the combination of cell viability evaluation with cell counting, as previously reported. The cell survival index is calculated as the arithmetic mean between the percentage values derived from the MTT assay and the automated cell count. Cells were inoculated in 96-microwell culture plates at a density of 10^4 cells/well and allowed to grow for 24 h. The medium was then replaced with fresh medium and cells were treated for an additional 48 h with a range of concentrations (from 1.5 to 25 μM) of 1, 9a–i, and 10a,b. Using the same experimental procedure, cell cultures were also incubated with DMSO as negative controls (vehicle), as well as with cisplatin (cDDP) and nutlin-3a as positive controls for cytotoxic and antiproliferative effects, respectively. Cell viability was evaluated using the MTT assay procedure. Cell number was determined by TC20 automated cell counter (Bio-Rad, Milan, Italy), providing an accurate and reproducible total count of cells and a live/dead ratio in one step by a specific dye (trypan blue) exclusion assay. The calculation of the concentration required to inhibit the net increase in the cell number and viability by 50% (IC50) is based on plots of data (n = 6 for each experiment) and repeated five times (total n = 30). IC50 values were calculated from a dose–response curve by nonlinear regression using a curve-fitting program, GraphPad Prism 5.0, and are expressed as mean values ± SEM (n = 30) of five independent experiments.

[1] = parameters: method as in PMID 23879262; details: 20 mM of PBS (pH = 7.4) containing 150 mM of KCl; cited from earlier work
[2] = test system: human colorectal carcinoma HCT-116 cells; experiment: Cell survival index (MTT + cell count) bioscreen, HCT-116; type: cell-based; details: HCT-116, 48 h, human colon cancer cell line, 48 h of incubation, mean ± SEM (n = 30)
Protocol: as §1, §2, §3

[3] = test system: human epithelial melanoma A375 cells; experiment: Cell survival index (MTT + cell count) bioscreen, A375; type: cell-based; details: for IC50: A-375, human melanoma cell line, 48 h of incubation, cell survival index, mean ± SEM (n = 30); for SI (selectivity index): SI = IC50 L6/IC50 A375
Protocol: as §1, §2, §3

[4] = Solubility assay in PBS by UV light scattering (precipitation point); type: physicochemical; details: for solubility at 1 min: PBS (phosphate-buffered saline), aqueous buffer, kinetic from dmso stock, PBS solution pH = 7.4, 37 °C, mean ± SEM (n = 3)
Protocol: The solubility of all compounds was evaluated in a PBS solution (phosphate-buffered saline; Sigma-Aldrich, Merck KGaA, Darmstadt, Germany, pH = 7.4) by means of UV spectroscopy.
For each compound, the precipitation point was quantified measuring the increasing of the UV absorption of PBS in the range of 600–800 nm after successive additions of aliquots of a DMSO solution at specific concentration. Because of the absence of bands in the selected UV region, the increase in absorption is due to light scattering caused by the formation of particulate in the PBS. UV absorption data were graphically reported vs. μL of the added DMSO solution (x-axis), and the precipitation point was identified as the intersect point of the bilinear fitted curve. The x coordinate of the intersect point corresponded to the microlitres of DMSO added to PBS (1.4 mL) when the precipitation occurred, from which the concentration of the molecule in PBS at the precipitation point is readily calculated.
The solubility of each molecule in PBS was quantified measuring the UV scattering in the range of 600–800 nm (JASCO UV-530 spectrophotometer, equipped with ETC-505 T temperature controller). DMSO solutions of 1, 9a, 9b, 9c, 9d, 9e, 9f, ±10b, and nutlin-3a were used at a final concentration of 2.6 mM, whereas those of 9g, 9h, and 9i were used at 1.0 mM. A total of 1400 µL of degassed PBS was placed in a quartz cuvette (o.l. 0.5 cm), equilibrated 5 min at 37 °C, and then titrated by 7–10 successive additions of 0.5 µL or 0.3 µL from the DMSO solution. Each titration was performed without removing the cuvette from the UV cell and, after each addition, the solution was equilibrated 1 min a 37 °C under gently stirring before the acquisition of the UV data. For each molecule, the solubility was expressed as the mean ± SEM (n = 3).

[5] = test system: human A375 melanoma cells; experiment: Apoptosis/Necrosis detection by fluorescence microscopy; type: cell-based; details: A375 cells incubated with IC50 concentrations
Source text: In order to confirm the possible activation of apoptosis, we performed fluorescence experiments to simultaneously monitor apoptotic and/or necrotic cells as well as deepen the biological effects on A375 triggered by exposure to the most bioactive derivatives under investigation (Figure 5).
Indeed, in apoptosis, PS is transferred to the outer leaflet of the plasma membrane. As a general indicator of the initial/intermediate stages of programmed cell death, the PS appearance on the cell surface can be detected as an apoptotic hallmark. Even in this circumstance, the results are very similar to those obtained with nutlin-3a.
The evaluation of apoptosis and/or necrosis induction after treatments in vitro was investigated by using the Apoptosis/Necrosis Detection kit (ab176749, Abcam, Discovery Drive, Cambridge Biomedical Campus, Cambridge, UK), which is optimized to simultaneously detect cell apoptosis (green), necrosis (red), and healthy cells (blue) by fluorescence microscopy analysis. […] As a universal indicator of the initial/intermediates stages of cell apoptosis, the appearance of PS on the cell surface can be detected before cytomorphological changes are observed. Thus, the phosphatidylserine (PS) early apoptotic sensor has green fluorescence (Ex/Em = 490/525 nm) upon binding to membrane PS. […]

For `Cc1ccc(Cn2c(C(=O)NCc3cccc(Cl)c3)cc(C(=O)c3ccccc3)c2C)cc1` [compound 1, 4-benzoyl-N-[(3-chlorophenyl)methyl]-5-methyl-1-[(4-methylphenyl)methyl]-1H-pyrrole-2-carboxamide], which CC50 (normal rat L6 myoblast) is on record?
The CC50 was 42 ± 3 µM.

And the Solubility [1]?
Its Solubility is at most 6.8 µM.

What about the IC50 [2] of the same compound?
Its IC50 is 41.4 ± 6 µM.

And the IC50 [3]?
The IC50 was 20 ± 4 µM.

What about the “SI (selectivity index)” value [3] of the same compound?
Its value is 2.1.

What about the solubility at 1 min [4] of the same compound?
Its solubility at 1 min is 3.5 ± 0.1 µM (≈ 1.6 µg/mL).

For `Cc1c(C(=O)c2ccccc2)cc(C(=O)NCc2cccc(Cl)c2)n1Cc1ccc(F)cc1` [compound 9c, 4-Benzoyl-N-(3-chlorobenzyl)-1-(4-fluorobenzyl)-5-methyl-1H-pyrrole-2-carboxamide], which “Activation of apoptosis (phosphatidylserine sensor, green fluorescence)” value [5] is on record?
Its value is “consistent activation of apoptosis”.

What about the CC50 (normal rat L6 myoblast) of the same compound?
The CC50 was 35 ± 4 µM.

And the IC50 [2]?
The IC50 was 55.9 ± 7 µM.

And the IC50 [3]?
Its IC50 is 13 ± 4 µM.

What about the “SI (selectivity index)” value [3] of the same compound?
The value was 2.7.

And the “Volume of DMSO solution added to PBS at the precipitation point” value ([4]; DMSO solution 2.6 mM added to 1400 µL PBS)?
The value was 2,1 µL.

And the solubility at 1 min [4]?
Its solubility at 1 min is 3.9 ± 0.2 µM (≈ 1.8 µg/mL).

Which “Activation of apoptosis (phosphatidylserine sensor, green fluorescence)” value [5] does the source give for `Cc1c(C(=O)c2ccccc2)cc(C(=O)NCc2cccc(Cl)c2)n1Cc1ccc(N)cc1` [compound 10a, 1-(4-aminobenzyl)-4-benzoyl-N-(3-chlorobenzyl)-5-methyl-1H-pyrrole-2-carboxamide] here?
The value was “consistent activation of apoptosis”.

And the CC50 (normal rat L6 myoblast)?
The CC50 was 55 ± 7 µM.

And the IC50 [2]?
The IC50 was 41.3 ± 6 µM.

What about the IC50 [3] of the same compound?
Its IC50 is 10 ± 4 µM.

And the “SI (selectivity index)” value [3]?
Its value is 5.6.

And the solubility at 1 min [4]?
Its solubility at 1 min is 10.5 ± 0.1 µM (≈ 4.81 µg/mL).

And the “Solubility fold higher than that of 1” value ([4]; PBS pH 7.4, ratio of DMSO solution volumes at the precipitation points)?
The value was 2.8 fold.

What does the source list for `COc1ccc(C2=N[C@H](c3ccc(Cl)cc3)[C@H](c3ccc(Cl)cc3)N2C(=O)N2CCNC(=O)C2)c(OC(C)C)c1` [nutlin-3a, reference compound]?
CC50 (normal rat L6 myoblast): 18 ± 4 µM; IC50 [2]: 12.5 ± 5 µM; IC50 [3]: 15 ± 3 µM; SI (selectivity index) [3]: 1.2; solubility at 1 min [4]: 2.4 ± 0.2 µM (≈ 1.4 µg/mL)
